In PubChem BioAssay AID1996:
Converted amounts (≈) assume the structure as drawn.

Conditions: buffer; pH 7.4; 200.0 µM

solubility kinetic [µg/mL]	SMILES
48.8 (≈ 140 µM)	CCOP(=O)(c1ccc(N(C)C)cc1)C(O)c1ccc(OC)cc1 (stereo not given)
> 42.9	COc1ccccc1NC(=O)COC(=O)c1ccccn1
> 51.8	COc1ccc(/C=N/N2CCOCC2)cc1Cn1cc([N+](=O)[O-])cn1
1.4 (≈ 4.74 µM)	CC(=O)Oc1ccc2oc(-c3ccccc3)c(C(N)=O)c2c1
40.8 (≈ 133 µM)	O=C(CCSc1ccc(Cl)cc1)NCc1ccccn1
42.3 (≈ 135 µM)	COc1ccc(CNC(=O)CCC(=O)Nc2cccnc2)cc1
> 49.6	COC(=O)c1cc(S(=O)(=O)N2CCC(C(N)=O)CC2)oc1C
61.9	COc1cc2nc(N3CCN(C(=O)c4ccco4)CC3)nc(N)c2cc1OC.Cl
5.4 (≈ 18 µM)	O=C(NC12CC3CC(CC(C3)C1)C2)c1ccc([N+](=O)[O-])cc1
> 44	CCOc1cc(/C=C2\NC(=O)NC2=O)cc([N+](=O)[O-])c1O
1.95 (≈ 7.35 µM)	N#Cc1c2ccc(OCC(N)=O)cc2n2ccccc12
> 70.6	CN1CCC(N(C)C(=O)c2ccc(Cl)c(S(=O)(=O)N(C)c3ccc(Cl)cc3)c2)CC1
61.5 (≈ 147 µM)	CC(=O)Nc1ccc(NC(=O)C(C)OC(=O)C23CC4CC(CC(Cl)(C4)C2)C3)cc1 (stereo not given)
> 28.4	COc1ccc2c(C=O)cn(C)c2c1
> 30.3	Nc1ccc(Sc2ccccc2)nc1
> 30.2	O=C(NC1CC1)c1cc2ccccc2o1
5.2 (≈ 12.6 µM)	O=C(Oc1c(-c2ccccc2)c(=O)n2c3c(cccc13)CC2)c1cccc([N+](=O)[O-])c1
> 50.3	COC(=O)c1cc(OC)c(OC)cc1N1C(=O)CC(C)(C)CC1=O
36.6 (≈ 107 µM)	COc1ccc(N2CCN(C(=O)c3cccnc3)CC2)c([N+](=O)[O-])c1

Continued, molecule first:

SMILES	solubility kinetic [µg/mL]
CC(C)CNC(=O)CCc1nc(-c2ccccc2)no1	37.7 (≈ 138 µM)
CCOC(=O)Cn1c(=NC(=O)C(C)C)sc2c(C)cc(C)cc21	< 0.4
NS(=O)(=O)c1ccc(S(=O)(=O)N2CCN(C3CCCC3)CC2)cc1	47.8 (≈ 128 µM)
CC(=O)C1=C(O)C(=O)N(CCO)C1c1ccccc1 (stereo not given)	> 39.2
O=C(NC(=S)Nc1cccnc1)c1ccccc1	36.1 (≈ 140 µM)
CCc1ccccc1NC(=O)CC1SCCNC1=O (stereo not given)	> 41.8
COc1ccc(/C=C/C(=O)O)cc1S(=O)(=O)NCc1ccccc1	49.6 (≈ 143 µM)
COc1ccc(OC)c(NC(=O)Nc2ccc3c(c2)OCO3)c1	2.3 (≈ 7.27 µM)
O=C(CSc1nnc(Nc2ccccc2F)s1)NCC1CCCO1 (stereo not given)	> 55.3
CCN1CCN(C(=O)c2[nH]c3ccc(OC)cc3c2C)CC1	> 45.2
O=C(/C=C/c1cccnc1)c1ccc([N+](=O)[O-])cc1	9.8 (≈ 38.5 µM)
Cc1ccc(NC(=S)NCC2CCN(C(C)c3ccccc3)C2)cc1 (stereo not given)	> 53
CN(CC(=O)Nc1cccc(F)c1)C(=O)CSc1ccccc1F	46.7 (≈ 133 µM)
O=C(Nc1ccccc1)c1ccc(NC(=O)c2cccs2)cc1	< 0.3
COc1ccccc1Cc1nc(-c2ccncc2)no1	33.4 (≈ 125 µM)
O=C(Cc1cccc(C(F)(F)F)c1)N1CCCC1	> 38.6
Cc1cccc(OCCN2C(=O)c3ccccc3C2=O)c1	4.6 (≈ 16.4 µM)
COc1nc(C)ccc1-c1noc(-c2cccnc2)n1	14.6 (≈ 54.4 µM)
O=C(O)/C=C/c1ccc(S(=O)(=O)Nc2cccnc2)cc1	> 45.6
O=C(Cc1ccc(F)cc1)N1CCN(c2ccc(F)cc2)CC1	> 47.5
O=C(/C=C/c1ccco1)NCC1COc2ccccc2O1 (stereo not given)	> 42.8

SMILES	solubility kinetic [µg/mL]
CC(=O)c1cccc(NC(=O)c2cc(-c3ccco3)on2)c1	2.1 (≈ 7.09 µM)
Cc1cc(C(=O)Nc2nccs2)c2cc(F)ccc2n1	3.1 (≈ 10.8 µM)
CC1CCN(C(=O)CC(NC(N)=O)c2ccccc2Cl)CC1 (stereo not given)	44.2 (≈ 136 µM)
Cc1noc(C)c1COC(=O)/C=C/c1ccccc1Cl	6.8 (≈ 23.3 µM)
Cc1cccc(NS(=O)(=O)c2ccc(C(C)(C)C)cc2)n1	42.7 (≈ 140 µM)
Cc1cc(C(=O)OCC(=O)N(C)c2ccccc2)c2ccccc2n1	> 50.2
CCOC(=O)c1cc(C(C)(C)C)nc(SC)c1C#N	1.3 (≈ 4.67 µM)
COc1ccc(/C=C/C(=O)Nc2c(C(=O)O)[nH]c3ccccc23)cc1OC	> 55
O=C(Nc1ccc(F)cc1)c1cc(Cl)sc1Cl	1.9 (≈ 6.55 µM)
Cc1cc(C)nc(N(C#N)Cc2ccc(Cl)cc2)n1	21.7 (≈ 79.6 µM)
CCOC(=O)Cc1csc(SCC(=O)N2CCN(c3ccccc3)CC2)n1	> 60.8
NS(=O)(=O)c1ccc(-n2cccc2C=O)cc1	36.1 (≈ 144 µM)
CCCCCn1cc(C(=O)C(=O)N2CCOCC2)c2ccccc21	46.8 (≈ 143 µM)
Cc1nnc(SCC(=O)NC2CC2)n1CC1CCCO1 (stereo not given)	> 44.5
COC(=O)CN1C(=O)N/C(=C/c2ccc(OC)c(C)c2OC)C1=O	4 (≈ 12 µM)
O=c1oc(-c2cccc([N+](=O)[O-])c2)nc2ccccc12	3.2 (≈ 11.9 µM)
CN(C)CC#CCC(O)(c1ccccc1)C1CCCCC1 (stereo not given)	42.7 (≈ 150 µM)
O=C(CCCc1ccccc1)NCc1ccccc1Cl	32.9 (≈ 114 µM)
C(CNC1C2CC3CC(C2)CC1C3)CN1CCOCC1.Cl (stereo not given)	> 52.7
CCN(CC)c1ncc(C#N)c(N)n1	25.6 (≈ 134 µM)
